According to US6783985B1, “Gene disruption methodologies for drug target discovery” (Elitra Pharmaceuticals Inc., priority 2000, dated 2004):

Columns and labels:
[1] = tested on: S. cerevisiae bar-coded strains bearing heterozygous mutations in HIS3, TUB1, ALG7, and ERG11; settings: grown together in a mixed population; targets HIS3, TUB1, ALG7, ERG11 respectively; cited from earlier work
[2] = tested on: wild type (diploid) CaHIS3 strain, CaHIS3 heterozygote strain and tetracycline promoter-regulated CaHIS3 GRACE strain; assay: Target level variation whole cell assay: 3-AT sensitivity of CaHIS3 strains; format: cell-based, Candida albicans; settings: for sensitivity of partially repressed (minimally expressing) CaHIS3 GRACE strain relative to heterozygous CaHIS3 strain: intermediate 3-AT concentration, threshold tetracycline (FIG. 6C, 6D)
Excerpt: The data derived from these experiments clearly indicate that distinct levels of target gene products synthesized within the pathogen could be directly applied in whole cell assay based drug screens to identify novel antifungal compounds active against novel drug targets validated using the GRACE method.
3-AT is a competitive inhibitor of the enzyme encoded by CaHIS3, imidazoleglycerol phosphate dehydratase, and together serve as a model for a drug and drug target respectively. […] The phenotype observed is consistent with that expected in light of the predicted 7.5 fold overexpression of CaHIS3 determined by Northern bolt analysis (see FIG. 5). […] A third CaHIS3 expression level evaluated for differential sensitivity to 3-AT was produced by partial repression of the GRACE CaHIS3 strain using a threshold concentration of tetracycline 0.1% […].
(§1) Moreover, these experiments clearly indicate how distinct levels of target gene products synthesized within the pathogen could be directly applied in whole cell assay based drug screens to identify novel antifungal compounds against those novel drug targets validated using the GRACE method.

C. albicans = assay: Sensitivity of C. albicans to selection antibiotics; format: cell-based, Candida albicans
Excerpt: Several art-known methods are available to create a heterozygote mutant. In less preferred embodiments, auxotrophic markers, such as but not limited to CaURA3, CaHIS3, CaLEU2, or CaTRP1, could be used for gene disruption if desired. However, the preferred method of heterozygote construction in diploid fungi employs a genetically modified dominant selectable marker. C. albicans is sensitive to the nucleoside-like antibiotic streptothricin at a concentration of 200 micrograms per milliliter. The presence of the Escherichia coli SAT1 gene within C. albicans allows acetylation of the drug rendering it nontoxic and permitting the strain to grow in the presence of streptothricin at a concentration of 200 micrograms per milliliter. Expression of the SAT1 gene in C. albicans is made possible by engineering the gene so that its DNA sequence is altered to conform to the genetic code of this organism and by providing a CaACT1 promoter (Morschhauser et al. (1998) Mol. Gen. Genet. 257:412-420) and a CaPCK1 terminator sequence (Leuker et al. (1997) Gene 192: 235-40). This genetically modified marker is referred to as CaSAT1 which is the subject of a copending United States nonprovisional application, filed Feb. 16, 2001. […]

CaERG11 GRACE strain = assay: Target level variation whole cell assay, CaERG11 GRACE strain; format: cell-based, Candida albicans
Excerpt: as §1

CaERG11 = settings: determined biochemically; cited from earlier work
CaALG7 GRACE strain = assay: Target level variation whole cell assay, CaALG7 GRACE strain; format: cell-based, Candida albicans
Excerpt: as §1

[3] = intermediate 3-AT concentration (FIG. 6B)

Nc1nc[nH]n1 [3-AT, 3-aminotriazole]
sensitivity of the strain heterozygous for the compound's drug target versus other heterozygote bar-coded strains [1]: significantly greater sensitivity | phenotype of CaHIS3 GRACE strain overexpressing CaHIS3 (constitutive tetracycline promoter expression) ([2]; 3-AT concentrations that completely inhibit wild type and heterozygote (FIG. 6A)): resistance | growth of wild type and CaHIS3 heterozygote strains ([2]; inhibitory levels of 3-AT (FIG. 6A)): completely inhibit growth | effect on wild type and tetracycline promoter-based overproducing CaHIS3 strains [2, 3]: unable to effect | sensitivity of heterozygous CaHIS3 strain (haploinsufficient phenotype) [2, 3]: enhanced sensitivity | sensitivity of partially repressed (minimally expressing) CaHIS3 GRACE strain relative to heterozygous CaHIS3 strain [2]: enhanced drug sensitivity | sensitivity of partially repressed (minimally expressing) CaHIS3 GRACE strain relative to heterozygous CaHIS3 strain ([2]; listed as 3-aminotriazole): hypersensitivity

CCCCNC(=O)n1c(NC(=O)OC)nc2ccccc21 [benomyl]
sensitivity of the strain heterozygous for the compound's drug target versus other heterozygote bar-coded strains [1]: significantly greater sensitivity

CN(CC[C@H](N)CC(=O)N[C@H]1C=C[C@H](n2ccc(N)nc2=O)O[C@@H]1C(=O)O)C(=N)N [blasticidin]
sensitivity of C. albicans to the fungicidal compound (C. albicans): sensitive

OC(Cn1cncn1)(Cn1cncn1)c1ccc(F)cc1F [fluconazole]
GRACE strain-specific phenotypes on increasing and decreasing expression of the drug target CaERG11 (CaERG11 GRACE strain): drug resistance and sensitivity phenotypes | mode of action, static or cidal (CaERG11): static | sensitivity of the strain heterozygous for the compound's drug target versus other heterozygote bar-coded strains [1]: significantly greater sensitivity

streptothricin
sensitivity of C. albicans to the antibiotic (C. albicans; streptothricin at 200 micrograms per milliliter): sensitive

tunicamycin
GRACE strain-specific phenotypes on increasing and decreasing expression of the drug target CaALG7 (CaALG7 GRACE strain): drug resistance and sensitivity phenotypes | sensitivity of the strain heterozygous for the compound's drug target versus other heterozygote bar-coded strains [1]: significantly greater sensitivity
